Four molecules from ChEMBL document CHEMBL5715260, “Selectivity Literature for EUbOPEN Chemogenomic Library” (2024) can be followed below.

One may read the ΔTm as the shift of the melting midpoint relative to a reference.

What all share (set-up): recommended concentration 1 uM
Test [1] has as its target T1, Hepatocyte nuclear factor 4-alpha (Homo sapiens) (UniProt P41235).
T1 sequence (whole entry): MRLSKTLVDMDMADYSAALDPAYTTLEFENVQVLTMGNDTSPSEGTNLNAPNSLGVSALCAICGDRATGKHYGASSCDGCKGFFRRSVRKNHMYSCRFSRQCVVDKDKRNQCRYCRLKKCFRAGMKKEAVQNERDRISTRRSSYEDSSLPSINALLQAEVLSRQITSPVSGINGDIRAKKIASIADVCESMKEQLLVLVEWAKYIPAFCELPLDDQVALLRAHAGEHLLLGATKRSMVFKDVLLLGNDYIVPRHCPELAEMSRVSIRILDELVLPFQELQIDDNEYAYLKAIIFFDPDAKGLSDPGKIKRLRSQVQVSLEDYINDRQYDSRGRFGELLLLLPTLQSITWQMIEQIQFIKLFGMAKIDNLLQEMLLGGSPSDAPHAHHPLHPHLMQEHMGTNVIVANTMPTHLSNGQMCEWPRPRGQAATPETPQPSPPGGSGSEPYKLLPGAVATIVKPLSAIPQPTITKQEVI
The test can be described thus: Selectivity interaction (Reporter gene assay) EUB0000563a HNF4A. (In general: In a reporter assay the amount or activity of a reporter protein is the signal.)

In test [2] the target is T2, Nuclear receptor subfamily 2 group C member 1 (Homo sapiens) (UniProt P13056).
T2 sequence (whole entry): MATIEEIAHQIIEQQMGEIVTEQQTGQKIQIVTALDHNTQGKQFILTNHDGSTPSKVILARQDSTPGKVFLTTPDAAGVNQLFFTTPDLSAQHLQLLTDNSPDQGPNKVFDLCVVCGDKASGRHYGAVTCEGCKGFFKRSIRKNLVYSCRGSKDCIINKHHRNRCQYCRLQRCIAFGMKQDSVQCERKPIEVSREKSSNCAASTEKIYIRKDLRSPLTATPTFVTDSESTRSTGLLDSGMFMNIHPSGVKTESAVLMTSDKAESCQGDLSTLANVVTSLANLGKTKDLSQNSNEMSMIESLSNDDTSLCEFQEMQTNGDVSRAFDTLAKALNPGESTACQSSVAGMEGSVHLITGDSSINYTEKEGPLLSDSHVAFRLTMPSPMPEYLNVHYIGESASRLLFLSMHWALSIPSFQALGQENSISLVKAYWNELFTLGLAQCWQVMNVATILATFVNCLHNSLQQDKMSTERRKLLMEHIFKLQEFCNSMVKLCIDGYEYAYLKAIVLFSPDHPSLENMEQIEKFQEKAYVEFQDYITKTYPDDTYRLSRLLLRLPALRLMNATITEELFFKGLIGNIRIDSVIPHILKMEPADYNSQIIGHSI
The test can be described thus: Selectivity interaction (Reporter gene assay) EUB0000563a NR2C1.

For test [3], the target named is Nuclear receptor subfamily 2 group E member 1 (Homo sapiens) (UniProt Q9Y466). In words: Selectivity interaction (Reporter gene assay) EUB0000563a NR2E1.
Test [4] has as its target Nuclear receptor subfamily 4immunitygroup A member 1 (Homo sapiens) (UniProt P22736). In words: Selectivity interaction (Reporter gene assay) EUB0000563a NR4A1.
In test [5] the target is Steroidogenic factor 1 (Homo sapiens) (UniProt Q13285). In words: Selectivity interaction (Reporter gene assay) EUB0000563a NR5A1.
The target of test [6] is T3, Alpha trans-inducing protein (Human alphaherpesvirus 1) (UniProt A0A5J6DW59). In words: Selectivity interaction (Reporter gene assay) EUB0000563a UL48.
Test [7] has as its target T4, Retinoic acid receptor RXR-alpha (Homo sapiens) (UniProt P19793).
T4 sequence (whole entry): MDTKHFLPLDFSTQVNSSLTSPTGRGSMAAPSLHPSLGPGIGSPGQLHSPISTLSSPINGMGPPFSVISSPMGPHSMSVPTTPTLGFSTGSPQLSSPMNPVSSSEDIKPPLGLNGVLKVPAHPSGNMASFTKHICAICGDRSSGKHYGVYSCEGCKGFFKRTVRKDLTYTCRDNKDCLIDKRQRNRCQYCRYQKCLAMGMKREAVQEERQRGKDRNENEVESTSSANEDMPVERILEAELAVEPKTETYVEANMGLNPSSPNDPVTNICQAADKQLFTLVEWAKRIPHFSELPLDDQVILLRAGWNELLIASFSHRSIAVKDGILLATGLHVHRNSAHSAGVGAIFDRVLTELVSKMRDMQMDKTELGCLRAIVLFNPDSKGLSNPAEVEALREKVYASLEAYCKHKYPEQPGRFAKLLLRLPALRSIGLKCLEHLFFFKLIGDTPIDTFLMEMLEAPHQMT
In words: Selectivity interaction (Reporter gene assay) EUB0000563a RXRA. To be noted: reference bexarotene 1 uM, Selectivity number of off-targets 0.0, Selectivity number of targets 1.0, Source Knowledge inhouse.

Test [8] concerns the target Adenosine receptor A1 (Homo sapiens) (UniProt P30542). The test can be described thus: Selectivity interaction (CEREP panel) EUB0000323b ADORA1. The settings on record: at 10 µM.
In test [9] the target is Bromodomain-containing protein 3 (Homo sapiens) (UniProt Q15059). The test can be described thus: (§1) Selectivity interaction (Bromodomain panel) EUB0000323b BRD3.
Test [10] shares this target. The test is described as §1. The source holds these as a separate data set.
For test [11], the target named is Bromodomain-containing protein 4 (Homo sapiens, UniProt O60885). In words: Selectivity interaction (Bromodomain panel) EUB0000323b BRD4.
Test [12] deals with Bromodomain-containing protein 7 (Homo sapiens) (UniProt Q9NPI1). The test can be described thus: Selectivity interaction (Bromodomain panel) EUB0000323b BRD7.
Test [13] addresses Transcription initiation factor TFIID subunit 1-like (Homo sapiens) (UniProt Q8IZX4). In words: Selectivity interaction (Bromodomain panel) EUB0000323b TAF1L.
Test [14] concerns the target Transcription intermediary factor 1-alpha (Homo sapiens) (UniProt O15164). In words: (§2) Selectivity interaction (Bromodomain panel) EUB0000323b TRIM24.
Test [15] shares this target. The description is as §2. This is another data set of the same source.
The target of test [16] is T2, Nuclear receptor subfamily 2 group C member 1 (Homo sapiens). In words: Selectivity interaction (Reporter gene assay) EUB0000568a NR2C1. To be noted: screened at recom. conc., Selectivity number of off-targets 2.0, Selectivity number of targets 5.0, Source Knowledge inhouse.
Test [17] has as its target Nuclear receptor subfamily 2 group E member 1 (Homo sapiens) (UniProt Q9Y466). The test can be described thus: Selectivity interaction (Reporter gene assay) EUB0000568a NR2E1. The settings on record: screened at recom. conc., Selectivity number of off-targets 2.0, Selectivity number of targets 5.0, Source Knowledge inhouse.
The target in test [18] is T1, Hepatocyte nuclear factor 4-alpha (Homo sapiens). The test can be described thus: Selectivity interaction (Reporter gene assay) EUB0000568a HNF4A.
Test [19] addresses Nuclear receptor subfamily 4immunitygroup A member 1 (Homo sapiens) (UniProt P22736). In words: Selectivity interaction (Reporter gene assay) EUB0000568a NR4A1.
Test [20] deals with Steroidogenic factor 1 (Homo sapiens) (UniProt Q13285). In words: Selectivity interaction (Reporter gene assay) EUB0000568a NR5A1.
In test [21] the target is T3, Alpha trans-inducing protein (Human alphaherpesvirus 1). In words: Selectivity interaction (Reporter gene assay) EUB0000568a UL48.
Test [22] deals with T4, Retinoic acid receptor RXR-alpha (Homo sapiens). The test can be described thus: Selectivity interaction (Reporter gene assay) EUB0000568a RXRA. The settings on record: reference bexarotene 1 uM, Selectivity number of off-targets 0.0, Selectivity number of targets 1.0, Source Knowledge inhouse.
The target of test [23] is T1, Hepatocyte nuclear factor 4-alpha (Homo sapiens). The test can be described thus: Selectivity interaction (Reporter gene assay) EUB0000555a HNF4A.
Test [24] addresses T2, Nuclear receptor subfamily 2 group C member 1 (Homo sapiens). In words: Selectivity interaction (Reporter gene assay) EUB0000555a NR2C1.
Test [25] deals with Nuclear receptor subfamily 2 group E member 1 (Homo sapiens) (UniProt Q9Y466). The test can be described thus: Selectivity interaction (Reporter gene assay) EUB0000555a NR2E1.
The target in test [26] is Nuclear receptor subfamily 4immunitygroup A member 1 (Homo sapiens) (UniProt P22736). In words: Selectivity interaction (Reporter gene assay) EUB0000555a NR4A1.
Test [27] addresses Steroidogenic factor 1 (Homo sapiens) (UniProt Q13285). In words: Selectivity interaction (Reporter gene assay) EUB0000555a NR5A1.
In test [28] the target is T3, Alpha trans-inducing protein (Human alphaherpesvirus 1). In words: Selectivity interaction (Reporter gene assay) EUB0000555a UL48.
Test [29] deals with T4, Retinoic acid receptor RXR-alpha (Homo sapiens). The test can be described thus: Selectivity interaction (Reporter gene assay) EUB0000555a RXRA.

Chain of Steroidogenic factor 1 (Homo sapiens) (Q13285 whole entry): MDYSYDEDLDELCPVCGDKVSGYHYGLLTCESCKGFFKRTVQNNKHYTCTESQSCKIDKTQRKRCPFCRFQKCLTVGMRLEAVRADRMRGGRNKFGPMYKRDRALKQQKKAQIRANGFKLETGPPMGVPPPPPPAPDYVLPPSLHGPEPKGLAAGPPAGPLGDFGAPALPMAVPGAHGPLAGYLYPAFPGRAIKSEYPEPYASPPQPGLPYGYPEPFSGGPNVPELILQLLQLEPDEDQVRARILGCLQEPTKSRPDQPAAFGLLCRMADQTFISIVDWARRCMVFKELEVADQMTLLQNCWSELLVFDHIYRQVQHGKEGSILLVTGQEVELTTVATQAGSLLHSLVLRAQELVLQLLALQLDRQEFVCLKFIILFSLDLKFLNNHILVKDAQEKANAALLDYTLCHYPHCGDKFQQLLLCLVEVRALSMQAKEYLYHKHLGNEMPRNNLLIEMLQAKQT
T3 sequence (A0A5J6DW59 as listed by the source): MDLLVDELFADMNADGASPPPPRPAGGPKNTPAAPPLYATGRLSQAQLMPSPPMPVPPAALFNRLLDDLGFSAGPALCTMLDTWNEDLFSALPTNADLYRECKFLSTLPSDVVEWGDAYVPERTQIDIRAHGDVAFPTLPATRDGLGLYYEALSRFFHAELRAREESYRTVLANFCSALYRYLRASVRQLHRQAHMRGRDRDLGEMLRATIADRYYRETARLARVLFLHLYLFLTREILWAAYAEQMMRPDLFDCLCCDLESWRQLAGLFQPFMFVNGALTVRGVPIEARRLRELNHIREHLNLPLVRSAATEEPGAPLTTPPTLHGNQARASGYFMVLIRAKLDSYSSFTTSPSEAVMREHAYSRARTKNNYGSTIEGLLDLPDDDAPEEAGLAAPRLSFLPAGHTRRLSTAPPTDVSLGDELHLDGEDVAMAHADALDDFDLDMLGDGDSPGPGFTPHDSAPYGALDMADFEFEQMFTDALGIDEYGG
Chain of Nuclear receptor subfamily 2 group E member 1 (Homo sapiens) (Q9Y466 whole entry): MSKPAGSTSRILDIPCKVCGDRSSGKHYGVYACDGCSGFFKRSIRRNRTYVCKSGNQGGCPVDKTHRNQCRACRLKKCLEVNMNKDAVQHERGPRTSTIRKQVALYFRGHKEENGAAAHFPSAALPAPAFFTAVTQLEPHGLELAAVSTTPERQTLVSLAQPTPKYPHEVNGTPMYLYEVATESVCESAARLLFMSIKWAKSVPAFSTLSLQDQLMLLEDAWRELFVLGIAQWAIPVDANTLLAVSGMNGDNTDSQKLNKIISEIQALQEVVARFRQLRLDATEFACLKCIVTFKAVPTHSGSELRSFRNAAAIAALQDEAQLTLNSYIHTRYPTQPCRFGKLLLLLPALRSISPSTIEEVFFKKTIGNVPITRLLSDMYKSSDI
Chain of Nuclear receptor subfamily 4immunitygroup A member 1 (Homo sapiens) (P22736 whole entry): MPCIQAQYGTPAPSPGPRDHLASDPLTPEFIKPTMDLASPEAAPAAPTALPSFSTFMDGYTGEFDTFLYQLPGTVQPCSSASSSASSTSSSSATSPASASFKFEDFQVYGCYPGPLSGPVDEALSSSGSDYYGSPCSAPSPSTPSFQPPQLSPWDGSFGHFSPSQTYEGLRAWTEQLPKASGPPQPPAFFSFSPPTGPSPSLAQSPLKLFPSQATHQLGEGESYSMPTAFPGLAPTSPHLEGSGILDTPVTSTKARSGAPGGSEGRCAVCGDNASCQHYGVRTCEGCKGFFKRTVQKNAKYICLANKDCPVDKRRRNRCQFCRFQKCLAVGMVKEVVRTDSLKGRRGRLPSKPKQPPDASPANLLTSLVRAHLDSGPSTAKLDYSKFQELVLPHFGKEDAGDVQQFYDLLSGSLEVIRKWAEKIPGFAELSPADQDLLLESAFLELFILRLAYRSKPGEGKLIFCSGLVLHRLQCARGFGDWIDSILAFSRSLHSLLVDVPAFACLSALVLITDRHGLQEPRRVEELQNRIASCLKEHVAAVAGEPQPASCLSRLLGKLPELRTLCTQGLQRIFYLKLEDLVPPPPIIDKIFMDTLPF
Chain of Bromodomain-containing protein 3 (Homo sapiens) (Q15059 2-726 limits assumed): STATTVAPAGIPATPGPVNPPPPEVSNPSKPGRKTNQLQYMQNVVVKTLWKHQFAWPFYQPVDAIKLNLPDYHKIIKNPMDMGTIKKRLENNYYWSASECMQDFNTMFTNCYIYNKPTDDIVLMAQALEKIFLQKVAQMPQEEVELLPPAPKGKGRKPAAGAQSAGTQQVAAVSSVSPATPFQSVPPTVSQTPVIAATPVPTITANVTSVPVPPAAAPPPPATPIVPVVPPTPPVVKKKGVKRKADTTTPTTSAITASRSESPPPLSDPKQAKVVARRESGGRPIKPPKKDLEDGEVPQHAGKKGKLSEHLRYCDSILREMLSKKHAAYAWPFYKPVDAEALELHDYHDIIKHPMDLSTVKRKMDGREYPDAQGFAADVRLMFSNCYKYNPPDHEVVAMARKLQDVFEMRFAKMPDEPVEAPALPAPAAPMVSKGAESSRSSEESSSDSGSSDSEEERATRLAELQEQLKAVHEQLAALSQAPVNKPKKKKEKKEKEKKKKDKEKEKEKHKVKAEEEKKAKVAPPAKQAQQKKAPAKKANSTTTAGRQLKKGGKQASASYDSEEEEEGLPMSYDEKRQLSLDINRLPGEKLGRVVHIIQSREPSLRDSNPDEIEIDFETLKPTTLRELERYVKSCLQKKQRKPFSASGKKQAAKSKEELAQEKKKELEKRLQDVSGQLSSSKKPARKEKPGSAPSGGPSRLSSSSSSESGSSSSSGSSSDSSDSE
Chain of Transcription intermediary factor 1-alpha (Homo sapiens) (O15164 whole entry): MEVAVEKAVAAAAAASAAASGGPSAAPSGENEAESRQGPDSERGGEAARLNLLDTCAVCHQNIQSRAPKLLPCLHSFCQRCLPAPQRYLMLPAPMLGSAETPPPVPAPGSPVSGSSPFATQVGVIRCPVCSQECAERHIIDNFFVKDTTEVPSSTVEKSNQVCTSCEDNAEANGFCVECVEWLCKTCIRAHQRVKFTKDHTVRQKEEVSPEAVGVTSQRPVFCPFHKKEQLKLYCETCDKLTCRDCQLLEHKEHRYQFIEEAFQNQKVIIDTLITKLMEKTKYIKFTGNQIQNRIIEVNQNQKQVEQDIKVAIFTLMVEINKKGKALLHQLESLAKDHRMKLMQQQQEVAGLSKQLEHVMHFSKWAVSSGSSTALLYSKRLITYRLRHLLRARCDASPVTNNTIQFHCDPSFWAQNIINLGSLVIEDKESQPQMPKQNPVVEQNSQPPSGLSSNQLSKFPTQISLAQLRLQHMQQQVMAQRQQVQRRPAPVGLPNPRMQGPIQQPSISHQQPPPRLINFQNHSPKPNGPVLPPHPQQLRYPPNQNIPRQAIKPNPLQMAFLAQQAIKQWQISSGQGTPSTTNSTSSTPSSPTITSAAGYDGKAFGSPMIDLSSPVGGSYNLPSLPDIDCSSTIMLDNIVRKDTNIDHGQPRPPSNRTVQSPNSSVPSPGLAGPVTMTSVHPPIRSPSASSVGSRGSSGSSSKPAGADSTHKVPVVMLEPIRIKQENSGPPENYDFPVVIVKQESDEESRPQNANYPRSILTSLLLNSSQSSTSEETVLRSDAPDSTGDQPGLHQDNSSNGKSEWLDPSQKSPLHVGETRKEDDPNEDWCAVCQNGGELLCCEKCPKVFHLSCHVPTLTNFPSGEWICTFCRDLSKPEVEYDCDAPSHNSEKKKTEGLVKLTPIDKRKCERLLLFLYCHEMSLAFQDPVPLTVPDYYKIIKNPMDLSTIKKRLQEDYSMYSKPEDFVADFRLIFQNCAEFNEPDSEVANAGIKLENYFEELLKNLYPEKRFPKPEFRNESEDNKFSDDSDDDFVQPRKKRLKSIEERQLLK
Chain of Bromodomain-containing protein 7 (Homo sapiens) (Q9NPI1 whole entry): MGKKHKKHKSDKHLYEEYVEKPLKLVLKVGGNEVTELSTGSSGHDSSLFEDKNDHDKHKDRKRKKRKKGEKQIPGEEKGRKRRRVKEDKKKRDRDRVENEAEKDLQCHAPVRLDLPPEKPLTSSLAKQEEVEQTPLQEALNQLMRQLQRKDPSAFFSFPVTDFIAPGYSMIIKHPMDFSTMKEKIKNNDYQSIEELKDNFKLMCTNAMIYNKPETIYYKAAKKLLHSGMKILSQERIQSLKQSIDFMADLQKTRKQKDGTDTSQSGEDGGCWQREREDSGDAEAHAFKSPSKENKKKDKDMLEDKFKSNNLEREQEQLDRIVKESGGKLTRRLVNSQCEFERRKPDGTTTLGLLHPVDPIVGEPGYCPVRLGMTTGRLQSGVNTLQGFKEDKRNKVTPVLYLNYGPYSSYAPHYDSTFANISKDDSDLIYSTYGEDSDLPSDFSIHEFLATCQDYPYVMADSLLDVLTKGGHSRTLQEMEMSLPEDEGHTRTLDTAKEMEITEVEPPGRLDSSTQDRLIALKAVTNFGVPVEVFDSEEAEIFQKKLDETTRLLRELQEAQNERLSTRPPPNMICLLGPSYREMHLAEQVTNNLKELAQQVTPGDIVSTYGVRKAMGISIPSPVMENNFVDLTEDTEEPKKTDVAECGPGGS
Chain of Adenosine receptor A1 (Homo sapiens) (P30542 whole entry): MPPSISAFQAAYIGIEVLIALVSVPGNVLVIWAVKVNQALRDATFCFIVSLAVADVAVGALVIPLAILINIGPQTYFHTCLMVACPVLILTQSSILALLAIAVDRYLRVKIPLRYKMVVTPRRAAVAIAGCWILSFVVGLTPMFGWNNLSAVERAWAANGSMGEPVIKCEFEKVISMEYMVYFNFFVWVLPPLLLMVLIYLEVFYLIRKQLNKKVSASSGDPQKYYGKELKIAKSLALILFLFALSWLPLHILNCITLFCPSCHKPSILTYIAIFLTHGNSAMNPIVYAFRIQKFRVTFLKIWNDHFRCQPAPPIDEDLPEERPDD

On to `CCOC(=O)c1ccc(C#Cc2ccc3c(c2)C(C)(C)CCS3)nc1`, for which the Remaining activity in test [1] turned out to be 0.921; in [2], 0.92; in test [3], 0.703; in test [4] it was 0.9; in test [5], 0.803. Also, the P-value in [6] worked out at 0.00141. This molecule gave a Relative activation in test [7] of 0.694%.
In the case of `COc1cc2c(cc1NS(=O)(=O)c1ccc(Br)cc1C)n(C)c(=O)n2C`, the Inhibition of control in [8] is 82%. The ΔTm was 1.6 °C in test [9]; 1.4 °C in [10]; 2 °C in [11]; 1.2 °C in test [12]; 1.4 °C in test [13]; 1.6 °C in test [14]. In test [15], the ΔTm amounted to 1.8 °C.
On to `O=C(O)c1ccc2cc(-c3ccc(O)c(C45CC6CC(CC(C6)C4)C5)c3)ccc2c1`, for which the Fold activation in test [16] was determined as 1.5; in [17] it was 2.03; in [19] it was 1.24; in test [20], 1.34. For the same molecule, in [18], the Remaining activity was found to be 0.803. This molecule also displayed a P-value in test [21] of 0.0191. In addition, the Relative activation in test [22] was 0.61%.
`N[C@@H](Cc1cc(I)c(Oc2ccc(O)c(I)c2)c(I)c1)C(=O)O`: the Remaining activity stood at 0.559 in [23], 0.695 in test [24], 0.804 in [26] and 0.79 in test [27]. Further, the Fold activation in test [25] stood at 1.03. In test [28], this molecule yielded a P-value of 8.08e-06. The molecule also gave a Relative activation in [29] of 0.715%.
